Measured values reported in US20220347175A1, “PYRIDAZINONE DERIVATIVE” (Sumitomo Dainippon Pharma Co., Ltd., priority 2018, published 2022).
One block for each compound: values may come before it.

Key:
[1] = biological target: T1, human Nav1.1 (Homo sapiens, UniProt P35498); assay: Amplification of Nav1.1-derived voltage-dependent sodium current (Nav1.1 current), cell line stably expressing human Nav1.1, automated patch clamp; assay type: cell-based; conditions: for activation at 10 µM / activation at 1 µM: read-out: Nav1.1 current amplification rate (%)
T1 construct: host or cells: HEK293
Method in brief: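 Amplification rate (%) is 100 × post-compound/pre-compound Nav1.1 peak current or AUC, minus 100. Ramp-evoked sodium currents were recorded by automated patch clamp in a human Nav1.1 HEK293 stable line, restricted to cells exceeding 500 pA, with compounds added in extracellular solution containing 1% DMSO.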

[2] = biological target: T2, human Nav1.5 (Homo sapiens, UniProt Q14524); assay: Amplification of Nav1.5-derived voltage-dependent sodium current (Nav1.5 current), cell line stably expressing human Nav1.5, automated patch clamp; assay type: cell-based; conditions: for activation at 10 µM / activation at 1 µM: read-out: Nav1.5 current amplification rate (%)
T2 construct: expressed in transfected cells; host or cells: CHO-K1 (T-REx System, ThermoFisher Scientific)
T2 sequence (Q14524 1-2015 isoform Q14524-2): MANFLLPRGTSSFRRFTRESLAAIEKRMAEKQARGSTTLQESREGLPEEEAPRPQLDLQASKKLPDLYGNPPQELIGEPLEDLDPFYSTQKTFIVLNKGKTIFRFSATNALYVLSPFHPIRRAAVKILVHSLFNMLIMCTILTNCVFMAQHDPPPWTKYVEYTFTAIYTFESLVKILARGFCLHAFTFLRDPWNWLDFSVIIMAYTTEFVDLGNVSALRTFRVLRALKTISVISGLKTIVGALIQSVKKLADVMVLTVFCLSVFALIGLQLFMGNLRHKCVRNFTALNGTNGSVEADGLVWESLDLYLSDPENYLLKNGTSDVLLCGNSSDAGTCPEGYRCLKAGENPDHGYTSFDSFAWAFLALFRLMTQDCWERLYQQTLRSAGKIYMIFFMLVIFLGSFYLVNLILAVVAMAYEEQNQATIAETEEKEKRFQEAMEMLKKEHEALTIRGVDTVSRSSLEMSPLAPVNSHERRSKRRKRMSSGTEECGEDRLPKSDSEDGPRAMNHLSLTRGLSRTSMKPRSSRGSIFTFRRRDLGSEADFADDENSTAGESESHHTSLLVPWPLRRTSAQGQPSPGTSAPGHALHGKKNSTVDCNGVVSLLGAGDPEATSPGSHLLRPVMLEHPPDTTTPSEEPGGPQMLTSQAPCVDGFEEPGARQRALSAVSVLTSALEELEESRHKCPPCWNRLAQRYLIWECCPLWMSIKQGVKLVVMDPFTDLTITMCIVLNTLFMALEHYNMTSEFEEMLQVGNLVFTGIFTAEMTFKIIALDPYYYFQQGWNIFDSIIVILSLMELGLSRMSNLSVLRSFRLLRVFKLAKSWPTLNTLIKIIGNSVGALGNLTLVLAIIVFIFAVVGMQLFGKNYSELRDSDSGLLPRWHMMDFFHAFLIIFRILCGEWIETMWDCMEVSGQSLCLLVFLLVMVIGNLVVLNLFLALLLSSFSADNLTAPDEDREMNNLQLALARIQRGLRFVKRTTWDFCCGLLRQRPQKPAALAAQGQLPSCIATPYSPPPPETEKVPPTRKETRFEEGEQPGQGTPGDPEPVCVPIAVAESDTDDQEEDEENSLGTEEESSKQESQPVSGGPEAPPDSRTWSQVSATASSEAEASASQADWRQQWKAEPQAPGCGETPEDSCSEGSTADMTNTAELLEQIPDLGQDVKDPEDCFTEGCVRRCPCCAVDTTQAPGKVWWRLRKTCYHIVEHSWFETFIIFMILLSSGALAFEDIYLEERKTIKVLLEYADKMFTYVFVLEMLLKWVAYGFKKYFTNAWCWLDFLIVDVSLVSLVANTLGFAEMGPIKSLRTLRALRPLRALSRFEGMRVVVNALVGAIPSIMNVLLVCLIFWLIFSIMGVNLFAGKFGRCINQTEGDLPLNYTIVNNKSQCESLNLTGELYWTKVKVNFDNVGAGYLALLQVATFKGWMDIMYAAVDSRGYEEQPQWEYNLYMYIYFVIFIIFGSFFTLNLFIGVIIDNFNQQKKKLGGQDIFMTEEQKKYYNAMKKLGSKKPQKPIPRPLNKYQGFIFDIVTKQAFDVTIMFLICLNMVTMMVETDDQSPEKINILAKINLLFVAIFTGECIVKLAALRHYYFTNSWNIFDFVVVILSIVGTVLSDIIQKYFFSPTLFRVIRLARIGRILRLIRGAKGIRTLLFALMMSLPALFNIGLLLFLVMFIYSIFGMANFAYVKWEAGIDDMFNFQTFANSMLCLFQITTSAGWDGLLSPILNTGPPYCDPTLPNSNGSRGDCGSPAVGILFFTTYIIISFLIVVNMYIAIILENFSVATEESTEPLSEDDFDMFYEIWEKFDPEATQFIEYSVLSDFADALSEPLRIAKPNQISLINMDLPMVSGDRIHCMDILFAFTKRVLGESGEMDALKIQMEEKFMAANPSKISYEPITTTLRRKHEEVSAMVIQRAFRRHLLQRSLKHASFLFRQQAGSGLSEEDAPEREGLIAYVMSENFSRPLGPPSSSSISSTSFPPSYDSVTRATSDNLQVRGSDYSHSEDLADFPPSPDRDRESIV

[3] = compound 3 μmol/L, HEK293 stably expressing human Nav1.1
[4] = compound 3 μmol/L, CHO-K1 stably expressing human Nav1.5
[5] = 10 μmol/L compound, change of the area under the curve of Nav1.1 current (Test Result 1)
[6] = 10 μmol/L compound, change of the area under the curve of Nav1.5 current (Test Result 1)
[7] = compound 1 μmol/L, HEK293 stably expressing human Nav1.1
[8] = compound 1 μmol/L, CHO-K1 stably expressing human Nav1.5

Nav1.1 current amplification rate (%) [1, 3]: 564%
SMILES: CC1CC=C(c2ccc(=O)n(CC(=O)N3CCc4c(-c5ccncc5)cccc43)n2)CC1 (racemic) [Example 250]
Nav1.5 current amplification rate (%) [2, 4]: 121%

activation at 10 µM [1, 5]: 240%
SMILES: O=C(Cn1nc(N2CCC3(CCCC3)C2)ccc1=O)Nc1ccc2scnc2c1 [Example 128]
activation at 10 µM [2, 6]: 56%

Nav1.1 current amplification rate (%) [1, 3]: 66%
SMILES: Cc1ncccc1N1CCN(C(=O)Cn2nc(C3=CCC(C)CC3)ccc2=O)CC1 (stereo not shown) [Example 410]
Nav1.5 current amplification rate (%) [2, 4]: 10%

Nav1.1 current amplification rate (%) [1, 5]: 244%
SMILES: CC1(C)CC=C(c2ccc(=O)n(CC(=O)Nc3ccc4c(c3)OCC4)n2)CC1 [Example 426]
Nav1.5 current amplification rate (%) [2, 6]: 20%

activation at 10 µM [1, 5]: 27%
SMILES: O=C(Cn1nc(N2CC3(CCCCC3)C2)ccc1=O)Nc1ccn2ccnc2c1 [Example 179]
activation at 10 µM [2, 6]: -1%

Nav1.1 current amplification rate (%) [1, 7]: 96%
SMILES: CC1CC=C(c2ccc(=O)n(CC(=O)Nc3ccc4nccn4n3)n2)CC1 (racemic) [Example 346]
Nav1.5 current amplification rate (%) [2, 8]: 27%

activation at 10 µM [1, 5]: 83%
SMILES: O=C(Cn1nc(C2=CCC(F)(F)CC2)ccc1=O)Nc1ccnc(C(F)(F)F)c1 [Example 114]
activation at 10 µM [2, 6]: 12%

Nav1.1 current amplification rate (%) [1, 5]: 522%
SMILES: COc1cc(=O)n(CC(=O)N2CCc3c(N4CCOCC4)cccc32)nc1C1=CCC(C)(C)CC1 [Example 470]
Nav1.5 current amplification rate (%) [2, 6]: 131%

Nav1.1 current amplification rate (%) [1, 5]: 376%
SMILES: COc1cc(C2=CCC(C)CC2)nn(CC(=O)N2CCN(c3cncc(F)c3)CC2)c1=O (racemic) [Example 488]
Nav1.5 current amplification rate (%) [2, 6]: 174%

activation at 10 µM [1, 5]: 267%
SMILES: Cc1cc(=O)n(CC(=O)Nc2ccc3c(c2)OCC3)nc1N1CCC2(CCC2)C1 [Example 203]
activation at 10 µM [2, 6]: 12%

Nav1.1 current amplification rate (%) [1, 5]: 57%
SMILES: CC1CCN(c2ccc(=O)n(CC(=O)Nc3cncc(C#N)c3)n2)CC1 [Example 60]
Nav1.5 current amplification rate (%) [2, 6]: 21%

Nav1.1 current amplification rate (%) [1, 3]: 255%
SMILES: CC1CC=C(c2ccc(=O)n(CC(=O)Nc3ccn4cc(C5CC5)nc4c3)n2)CC1 (racemic) [Example 334]
Nav1.5 current amplification rate (%) [2, 4]: 25%

activation at 10 µM [1, 5]: 205%
SMILES: O=C(Cn1nc(N2CCC3(CCC3)CC2)ccc1=O)Nc1ccn2ccnc2c1 [Example 168]
activation at 10 µM [2, 6]: 23%

activation at 10 µM [1, 5]: 281%
SMILES: CC1(C)CCN(c2ccc(=O)n(CC(=O)N3CCc4c(N5CCOCC5)cccc43)n2)CC1 [Example 221]
activation at 10 µM [2, 6]: 15%

Nav1.1 current amplification rate (%) [1, 3]: 320%
SMILES: CC1CC=C(c2ccc(=O)n(CC(=O)N3CCc4c(OCC(C)(C)O)cccc43)n2)CC1 (racemic) [Example 307]
Nav1.5 current amplification rate (%) [2, 4]: 37%

Nav1.1 current amplification rate (%) [1, 7]: 133%
SMILES: CC1CC=C(c2ccc(=O)n(CC(=O)Nc3ccnc(C#N)c3)n2)CC1 (racemic) [Example 362]
Nav1.5 current amplification rate (%) [2, 8]: 24%

activation at 10 µM [1, 5]: 155%
SMILES: CC1CCN(c2ccc(=O)n(CC(=O)Nc3ccc4ocnc4c3)n2)CC1 [Example 50, N-(1,3-benzooxazol-5-yl)-2-[3-(4-methylpiperidin-1-yl)-6-oxopyridazin-1(6H)-yl]acetamide]
activation at 10 µM [2, 6]: 4%

Nav1.1 current amplification rate (%) [1, 5]: 414%
SMILES: Cc1cncc(N2CCN(C(=O)Cn3nc(C4=CCC(C)(C)CC4)ccc3=O)CC2)c1 [Example 442]
Nav1.5 current amplification rate (%) [2, 6]: 27%

Nav1.1 current amplification rate (%) [1, 5]: 172%
SMILES: CC1(C)CC=C(c2ccc(=O)n(CC(=O)Nc3ccn4nccc4c3)n2)CC1 [Example 427]
Nav1.5 current amplification rate (%) [2, 6]: 63%

activation at 10 µM [1, 5]: 108%
SMILES: O=C(Cn1nc(N2CCCC3(CCCC3)C2)ccc1=O)Nc1ccc2ocnc2c1 [Example 132]
activation at 10 µM [2, 6]: -2%

Nav1.1 current amplification rate (%) [1, 5]: 270%
SMILES: COc1cncc(C2=CCN(C(=O)Cn3nc(C4=CCC(C)CC4)ccc3=O)CC2)c1 (stereo not shown) [Example 403]
Nav1.5 current amplification rate (%) [2, 6]: 12%

Nav1.1 current amplification rate (%) [1, 5]: 30%
SMILES: CC1(C)CC=C(c2ccc(=O)n(CC(=O)N3CCC4(CCOCC4)CC3)n2)CC1 [Example 441]
Nav1.5 current amplification rate (%) [2, 6]: 1%

activation at 10 µM [1, 5]: 146%
SMILES: Cc1c(N2CCC3(CCCC3)C2)nn(CC(=O)Nc2ccc3ocnc3c2)c(=O)c1C [Example 165]
activation at 10 µM [2, 6]: 11%

activation at 1 µM [1, 7]: 255%
SMILES: O=C(Cn1nc(C2=CCCCC2)ccc1=O)N1CCc2c(Cn3ccnc3)cccc21 [Example 515]
activation at 1 µM [2, 8]: 287%

activation at 1 µM [1, 7]: 103%
SMILES: O=C(Cn1nc(C2=CCC3(CC2)CC3)ccc1=O)Nc1ccn2ncnc2c1 [Example 512, 2-[6-oxo-3-(spiro[2.5]oct-5-en-6-yl)pyridazin-1(6H)-yl]-N-([1,2,4]triazolo[1,5-a]pyridin-7-yl)acetamide]
activation at 1 µM [2, 8]: 34%

Nav1.1 current amplification rate (%) [1, 3]: 79%
SMILES: CC1CC=C(c2ccc(=O)n(CC(=O)N3CCN(c4ccccc4)CC3)n2)CC1 (racemic) [Example 258]
Nav1.5 current amplification rate (%) [2, 4]: 4%

Nav1.1 current amplification rate (%) [1, 5]: 287%
SMILES: Cc1nc2cc(NC(=O)Cn3nc(C4=CCC(C)CC4)ccc3=O)ccc2o1 (stereo not shown) [Example 422]
Nav1.5 current amplification rate (%) [2, 6]: 28%

Nav1.1 current amplification rate (%) [1, 5]: 310%
SMILES: COc1nc2cc(NC(=O)Cn3nc(C4=CCC(C)CC4)ccc3=O)ccc2o1 (racemic) [Example 239]
Nav1.5 current amplification rate (%) [2, 6]: 31%

SMILES: CC1CCN(c2ccc(=O)n(CC(=O)Nc3ccnc(C#N)c3)n2)CC1 [Example 53]
Nav1.1 current amplification rate (%) [1, 5]: 161% | Nav1.5 current amplification rate (%) [2, 6]: 11%

Nav1.1 current amplification rate (%) [1, 5]: 219%
SMILES: COc1cc(C2=CCC(C(F)(F)F)CC2)nn(CC(=O)N2CCN(c3cncc(F)c3)CC2)c1=O (racemic) [Example 482]
Nav1.5 current amplification rate (%) [2, 6]: 8%

Nav1.1 current amplification rate (%) [1, 7]: 130%
SMILES: CC1CC=C(c2ccc(=O)n(CC(=O)Nc3ccc4ncncc4c3)n2)CC1 (racemic) [Example 355]
Nav1.5 current amplification rate (%) [2, 8]: 28%

Nav1.1 current amplification rate (%) [1, 5]: 32%
SMILES: Cc1ccc(-c2ccc(=O)n(CC(=O)N3CCc4cnccc43)n2)cc1 [Example 159]
Nav1.5 current amplification rate (%) [2, 6]: 26%

activation at 10 µM [1, 5]: 225%
SMILES: CN(C)c1cc(N2CCC3(CCCC3)C2)nn(CC(=O)Nc2ccc3ocnc3c2)c1=O [Example 196]
activation at 10 µM [2, 6]: 18%

activation at 10 µM [1, 5]: 103%
SMILES: Cc1cc(N2CCC(C)CC2)nn(CC(=O)Nc2ccc3ocnc3c2)c1=O [Example 200]
activation at 10 µM [2, 6]: 5%

Nav1.1 current amplification rate (%) [1, 5]: 186%
SMILES: CC1(C)CC=C(c2ccc(=O)n(CC(=O)Nc3ccn4ccnc4c3)n2)C1 [Example 465]
Nav1.5 current amplification rate (%) [2, 6]: 8%

Nav1.1 current amplification rate (%) [1, 5]: 136%
SMILES: Cc1ccc(N2CCN(C(=O)Cn3nc(C4=CCC(C)CC4)ccc3=O)CC2)cn1 (racemic) [Example 396]
Nav1.5 current amplification rate (%) [2, 6]: 8%

Nav1.1 current amplification rate (%) [1, 3]: 6%
SMILES: CC1CC=C(c2ccc(=O)n(CC(=O)N3CCc4c(C5CNC5)cccc43)n2)CC1 (racemic) [Example 299]
Nav1.5 current amplification rate (%) [2, 4]: 10%

Nav1.1 current amplification rate (%) [1, 5]: 60%
SMILES: CC1CC=C(c2ccc(=O)n(CC(=O)N3CCN(c4ccncc4)CC3)n2)CC1 (racemic) [Example 261]
Nav1.5 current amplification rate (%) [2, 6]: 1%

Nav1.1 current amplification rate (%) [1, 7]: 101%
SMILES: Cc1nccn1-c1ccc(NC(=O)Cn2nc(C3=CCC(C)CC3)ccc2=O)cc1 (racemic) [Example 361]
Nav1.5 current amplification rate (%) [2, 8]: 112%

Nav1.1 current amplification rate (%) [1, 5]: 103%
SMILES: COc1nc2cc(NC(=O)Cn3nc(N4CCC(C)CC4)ccc3=O)ccc2o1 [Example 99]
Nav1.5 current amplification rate (%) [2, 6]: 4%

Nav1.1 current amplification rate (%) [1, 5]: 292%
SMILES: CC1(C)CC=C(c2ccc(=O)n(CC(=O)N3CCN(c4cncc(F)c4)CC3)n2)CC1 [Example 444]
Nav1.5 current amplification rate (%) [2, 6]: 10%

Nav1.1 current amplification rate (%) [1, 5]: 131%
SMILES: CC1CCN(c2ccc(=O)n(CC(=O)Nc3ccn4nccc4c3)n2)CC1 [Example 71]
Nav1.5 current amplification rate (%) [2, 6]: 13%

Nav1.1 current amplification rate (%) [1, 3]: 108%
SMILES: CC1CC=C(c2ccc(=O)n(CC(=O)N3CCc4c(CO)cccc43)n2)CC1 (racemic) [Example 266]
Nav1.5 current amplification rate (%) [2, 4]: 128%

Nav1.1 current amplification rate (%) [1, 5]: 286%
SMILES: CC1CC=C(c2ccc(=O)n(CC(=O)N3CCN(c4cncc(C(F)(F)F)c4)CC3)n2)CC1 (racemic) [Example 401]
Nav1.5 current amplification rate (%) [2, 6]: 5%

Nav1.1 current amplification rate (%) [1, 7]: 84%
SMILES: CC1CC=C(c2ccc(=O)n(CC(=O)N3CCc4c(CNC5COC5)cccc43)n2)CC1 (racemic) [Example 313]
Nav1.5 current amplification rate (%) [2, 8]: 133%

Nav1.1 current amplification rate (%) [1, 7]: 134%
SMILES: CC1CC=C(c2ccc(=O)n(CC(=O)N3CCc4c3ccnc4N3CCOCC3)n2)CC1 (racemic) [Example 319]
Nav1.5 current amplification rate (%) [2, 8]: 30%

Nav1.1 current amplification rate (%) [1, 7]: 123%
SMILES: CC1CC=C(c2ccc(=O)n(CC(=O)Nc3ccc4nccnc4c3)n2)CC1 (racemic) [Example 354]
Nav1.5 current amplification rate (%) [2, 8]: 27%

Nav1.1 current amplification rate (%) [1, 5]: 92%
SMILES: CC1CCN(c2ccc(=O)n(CC(=O)Nc3ccc4ncoc4c3)n2)CC1 [Example 73]
Nav1.5 current amplification rate (%) [2, 6]: 1%

Nav1.1 current amplification rate (%) [1, 3]: 113%
SMILES: COc1ccc(N2CCN(C(=O)Cn3nc(C4=CCC(C)CC4)ccc3=O)CC2)cn1 (stereo not shown) [Example 407]
Nav1.5 current amplification rate (%) [2, 4]: 6%

Nav1.1 current amplification rate (%) [1, 7]: 207%
SMILES: CC1CC=C(c2ccc(=O)n(CC(=O)N3CCc4c(CN(C)C5COC5)cccc43)n2)CC1 (racemic) [Example 276]
Nav1.5 current amplification rate (%) [2, 8]: 47%
